Laboratory results: patent US9708368B2, “Linear peptide antibiotics” (priority 2012, dated 2017)
In brackets after ≈: the same amount, converted by molar mass. Numbered stars: 1 amine (or outer) side, 2 acyl side, 3 side chain; on linkers, the order of the positions; unused ones are H or OH. Square brackets hold non-standard residues; d marks the D form. Peptide text beside a SMILES is read from it. * marks the point of attachment. ξ: configuration not given here. boroAla((+)-pinanediol) = C[C@H](N*)B1O[C@@H]2C[C@@H]3C[C@@H](C3(C)C)[C@]2(C)O1; X7 = CC1(C)[C@@H]2C[C@H]3OB([C@@H]4CCCN4*)O[C@@]3(C)[C@H]1C2; Biphenylcarbonyl(4'-Bu) = CCCCc1ccc(-c2ccc(C(=O)*)cc2)cc1; X1 = C[C@H](N*)B1OC2C[C@@H]3C[C@@H](C3(C)C)[C@]2(C)O1; Benzoyl(4-(4-Cl-Ph)) = O=C(c1ccc(-c2ccc(Cl)cc2)cc1)*; ξPro(4S-NH2) = O=C(C1C[C@H](N[*:3])CN1[*:1])[*:2]; ξ3Amino2oxobutanoyl = CC(N[*:1])C(=O)C(=O)[*:2]; X10 = CCCCc1ccc(-c2ccc(N*)cc2)cc1; Tle = CC(C)(C)[C@H](N)C(=O)O; Lauroyl = CCCCCCCCCCCC(=O)*; 4Amb = NCc1ccc(C(=O)O)cc1; boroAla = C[C@H](N*)B(O)O; Dab = NCC[C@H](N)C(=O)O; Dap = NC[C@H](N)C(=O)O; Ac3c = NC1(C(=O)O)CC1; X14 = CCCCc1ccc(*)cc1; CO = O=C([*:1])[*:2]; βAla = NCCC(=O)O

Tests used:
[1] = tested on: methicillin resistant Staphylococcus aureus (MRSA) strain USA300 (NRS384); conditions: Method B, 35° C., 22 hours
[2] = biological target: E. coli SPase (Escherichia coli, UniProt P00803); assay: Biochemical SPase activity assay (fluorogenic peptide substrate), E. coli enzyme
[3] = biological target: S. aureus SPase (Staphylococcus aureus, UniProt P0A070); assay: biochemical
[4] = tested on: Escherichia coli strain MC4100 IMP-4213, which harbors an LptD mutation; conditions: Method B; E. coli MC4100 IMP-4213 (LptD mutation); 35° C., 22 hours
Procedure: In vitro antimicrobial activity of each compound was determined by measuring minimal inhibitor concentrations (MICs) using the broth micro-dilution technique as approved by the Clinical and Laboratory Standards Institute (CLSI). […] Bacterial inocula were prepared by scraping cells into 1 mL of testing media (cation adjusted Mueller Hinton Broth supplemented with 0.002% v/v Tween-80) and diluting to a final OD600 nm of 0.01.
Test compounds were prepared in DMSO at a concentration of 10 mg/ml. […] Bacterial inocula were added to the two fold serial dilutions of test compounds to a final density of OD OD600 nm of 0.0005 and incubated stationarily at 35° C. for 22 hours, after which the plates were examined visually.

SMILES | MIC (μg/mL) S. aureus [1] | IC50 [2] | IC50 [3] | MIC (μg/mL) E. coli [4]
CCCCc1ccc(-c2ccc(C(=O)N3C[C@@H](N)CC3C(=O)N[C@H](C(=O)N[C@@H](C)C(=O)N[C@@H](CC(N)=O)C(=O)N[C@@H](C)B3OC4C[C@@H]5C[C@@H](C5(C)C)[C@]4(C)O3)[C@@H](C)O)cc2)cc1 (stereo partly drawn) [Compound 139] ({Biphenylcarbonyl(4'-Bu)}-[ξPro(4S-NH2)]TAN-X1) | 1 µg/mL (≈ 1.17 µM) | 3.4 nM | 8.5 nM | 2 µg/mL (≈ 2.33 µM)
CC(C)C[C@H](NC(=O)[C@H](C)NC(=O)[C@H](CN)NC(=O)[C@H](CN)NC(=O)c1ccc(-c2ccc(Cl)cc2)cc1)C(=O)N[C@@H](C)B1O[C@@H]2C[C@@H]3C[C@@H](C3(C)C)[C@]2(C)O1 [Compound 172] ({Benzoyl(4-(4-Cl-Ph))}-[Dap][Dap]AL-{boroAla((+)-pinanediol)}) | 8 µg/mL (≈ 10.1 µM) | 20 nM | 750 nM | 8 µg/mL (≈ 10.1 µM)
CCCCc1ccc(-c2ccc(NC(=O)N[C@@H](CCCCN)C(=O)N[C@H](C(=O)N[C@@H](C)C(=O)N[C@@H](CC(N)=O)C(=O)N[C@@H](C)B3OC4C[C@@H]5C[C@@H](C5(C)C)[C@]4(C)O3)[C@@H](C)O)cc2)cc1 (stereo partly shown) [Compound 263] ({X10-CO}-KTAN-X1) | 0.71 µg/mL (≈ 0.799 µM) | 88 nM | 72 nM | 2 µg/mL (≈ 2.25 µM)
CCCCc1ccc(-c2ccc(C(=O)N[C@@H](CCCCN)C(=O)NC3(C(=O)N[C@@H](C)C(=O)N[C@@H](CCCCN)C(=O)N[C@@H](C)B4OC5C[C@@H]6C[C@@H](C6(C)C)[C@]5(C)O4)CC3)cc2)cc1 (stereo partly shown) [Compound 137] ({Biphenylcarbonyl(4'-Bu)}-K[Ac3c]AK-X1) | 16 µg/mL (≈ 18.4 µM) | 1200 nM | 26000 nM | 23 µg/mL (≈ 26.4 µM)
CCCCc1ccc(-c2ccc(C(=O)N[C@@H](CCCCN)C(=O)N[C@@H](C)C(=O)N[C@@H](CC(C)C)C(=O)N[C@@H](C)B(O)O)cc2)cc1 [Compound 191] | 20 µg/mL (≈ 31.4 µM) | 38000 nM | 50000 nM | 16 µg/mL (≈ 25.1 µM)
CCCCc1ccc(-c2ccc(C(=O)N[C@@H](CCCCN)C(=O)N[C@H](C(=O)N[C@@H](C)C(=O)N[C@@H](CC(N)=O)C(=O)N[C@@H](C)B(O)O)[C@@H](C)O)cc2)cc1 [Compound 131] ({Biphenylcarbonyl(4'-Bu)}-KTAN-boroAla) | 0.45 µg/mL (≈ 0.608 µM) | 19 nM | 98 nM | 0.44 µg/mL (≈ 0.595 µM)
CCCCc1ccc(-c2ccc(C(=O)NCCC(=O)N[C@@H](CCCCN)C(=O)N[C@H](C(=O)N[C@H](C(=O)N[C@@H](CC(N)=O)C(=O)N[C@@H](C)B3OC4C[C@@H]5C[C@@H](C5(C)C)[C@]4(C)O3)C(C)C)[C@@H](C)O)cc2)cc1 (stereo partly shown) [Compound 212] ({Biphenylcarbonyl(4'-Bu)-βAla}-KTVN-X1) | 0.84 µg/mL (≈ 0.863 µM) | 26 nM | 12 nM | 5 µg/mL (≈ 5.14 µM)
CCCCc1ccc(-c2ccc(C(=O)NCCC(=O)N[C@@H](CCCCN)C(=O)N[C@H](C(=O)N[C@@H](C)C(=O)N[C@@H](CC(N)=O)C(=O)N3CCC[C@H]3B3O[C@@H]4C[C@@H]5C[C@@H](C5(C)C)[C@]4(C)O3)[C@@H](C)O)cc2)cc1 [Compound 200] ({Biphenylcarbonyl(4'-Bu)-βAla}-KTAN-X7) | >64 µg/mL | 5200 nM | 1200 nM | 64 µg/mL (≈ 65.9 µM)
CC(C)C[C@H](NC(=O)[C@H](C)NC(=O)[C@H](CCN)NC(=O)[C@H](CCN)NC(=O)c1ccc(-c2ccc(Cl)cc2)cc1)C(=O)N[C@@H](C)B(O)O [Compound 177] ({Benzoyl(4-(4-Cl-Ph))}-[Dab][Dab]AL-boroAla) | 2 µg/mL (≈ 2.91 µM) | 70 nM | 640 nM | 2 µg/mL (≈ 2.91 µM)
CC(C)C[C@H](NC(=O)[C@H](C)NC(=O)[C@H](CN)NC(=O)[C@H](CN)NC(=O)c1ccc(-c2ccc(Cl)cc2)cc1)C(=O)N[C@@H](C)B(O)O [Compound 176] ({Benzoyl(4-(4-Cl-Ph))}-[Dap][Dap]AL-boroAla) | 16 µg/mL (≈ 24.2 µM) | 56 nM | 1200 nM | 8 µg/mL (≈ 12.1 µM)
CCCCc1ccc(-c2ccc(C(=O)NCCC(=O)N[C@@H](CCCCN)C(=O)N[C@H](C(=O)N[C@@H](C)C(=O)N[C@@H](Cc3c[nH]cn3)C(=O)N[C@@H](C)B3OC4C[C@@H]5C[C@@H](C5(C)C)[C@]4(C)O3)[C@@H](C)O)cc2)cc1 (stereo partly shown) [Compound 196] ({Biphenylcarbonyl(4'-Bu)-βAla}-KTAH-X1) | 0.66 µg/mL (≈ 0.682 µM) | 8.8 nM | 5.7 nM | 2.5 µg/mL (≈ 2.58 µM)
CCCCc1ccc(NCc2ccc(C(=O)N[C@@H](CCN)C(=O)N[C@H](C(=O)N[C@@H](C)C(=O)N[C@@H](CCCCN)C(=O)N[C@@H](C)B3OC4C[C@@H]5C[C@@H](C5(C)C)[C@]4(C)O3)[C@@H](C)O)cc2)cc1 (stereo partly shown) [Compound 250] ({X14-4Amb}-[Dab]TAK-X1) | 0.35 µg/mL (≈ 0.394 µM) | 8.4 nM | 110 nM | 0.71 µg/mL (≈ 0.799 µM)
CC(C)C[C@H](NC(=O)[C@H](C)NC(=O)[C@H](CCCCN)NC(=O)[C@H](CCCCN)NC(=O)c1ccc(-c2ccc(Cl)cc2)cc1)C(=O)N[C@@H](C)B1OC2C[C@@H]3C[C@@H](C3(C)C)[C@]2(C)O1 (stereo partly shown) [Compound 145] ({Benzoyl(4-(4-Cl-Ph))}-KKAL-X1) | 3.2 µg/mL (≈ 3.64 µM) | 39 nM | 240 nM | 5 µg/mL (≈ 5.69 µM)
CCCCc1ccc(-c2ccc(C(=O)N[C@@H](CCN)C(=O)N[C@H](C(=O)N[C@@H](C)C(=O)N[C@@H](CCCCN)C(=O)N[C@@H](C)B3OC4C[C@@H]5C[C@@H](C5(C)C)[C@]4(C)O3)[C@@H](C)O)cn2)cc1 (stereo partly shown) [Compound 234] | 0.4 µg/mL (≈ 0.465 µM) | 8.3 nM | 53 nM | 0.5 µg/mL (≈ 0.581 µM)
CCCCc1ccc(-c2ccc(CNCCCC(=O)N[C@H](C(=O)N[C@@H](C)C(=O)N[C@@H](CCCCN)C(=O)N[C@@H](C)B3O[C@@H]4C[C@@H]5C[C@@H](C5(C)C)[C@]4(C)O3)[C@@H](C)O)cc2)cc1 [Compound 271] | 0.5 µg/mL (≈ 0.602 µM) | 200 nM | 16 nM | 11 µg/mL (≈ 13.2 µM)
CCCCc1ccc(-c2ccc(C(=O)NCCC(=O)N[C@@H](CCCCN)C(=O)N[C@H](C(=O)N[C@@H](C)C(=O)N[C@@H](CC(N)=O)C(=O)N[C@@H](C)B3OC4C[C@@H]5C[C@@H](C5(C)C)[C@]4(C)O3)C(C)(C)C)cc2)cc1 (stereo partly shown) [Compound 210] ({Biphenylcarbonyl(4'-Bu)-βAla}-K[Tle]AN-X1) | 0.71 µg/mL (≈ 0.742 µM) | 56 nM | 16 nM | 4 µg/mL (≈ 4.18 µM)
CCCCc1ccc(-c2ccc(CC(=O)N[C@@H](CCN)C(=O)N[C@H](C(=O)N[C@@H](C)C(=O)N[C@@H](CCCCN)C(=O)N[C@@H](C)B3OC4C[C@@H]5C[C@@H](C5(C)C)[C@]4(C)O3)[C@@H](C)O)cc2)cc1 (stereo partly shown) [Compound 243] | 0.5 µg/mL (≈ 0.572 µM) | 10 nM | 80 nM | 2 µg/mL (≈ 2.29 µM)
CCCCc1ccc(-c2ccc(C(=O)NCCC(=O)N[C@@H](CCCCN)C(=O)N[C@H](C(=O)N[C@@H](C)C(=O)N[C@@H](CC(N)=O)C(=O)NC(C)C(=O)C(=O)NC)[C@@H](C)O)cc2)cc1 (stereo partly shown) [Compound 252] ({Biphenylcarbonyl(4'-Bu)-βAla}-KTAN[ξ3Amino2oxobutanoyl]-NHMe) | 5 µg/mL (≈ 5.87 µM) | 3000 nM | 8.7 nM | >64 µg/mL
CCCCCCCCCCCC(=O)NCCC(=O)N[C@@H](CCCCN)C(=O)N[C@H](C(=O)N[C@@H](C)C(=O)N[C@@H](CC(N)=O)C(=O)N[C@@H](C)B1OC2C[C@@H]3C[C@@H](C3(C)C)[C@]2(C)O1)[C@@H](C)O (stereo partly shown) [Compound 202] ({Lauroyl-βAla}-KTAN-X1) | 1.1 µg/mL (≈ 1.23 µM) | 7.1 nM | 3.5 nM | 23 µg/mL (≈ 25.8 µM)
